Test results from US6479487B1, “6, 9-disubstituted 2-[trans-(4-aminocyclohexyl)amino] purines” (Aventis Pharmaceuticals Inc., priority 1998, dated 2002).
Several values for one entry are separate records, joined by “and”; a condition that tells them apart may be missing. Equal values may be shown once. Where a name gives a salt, the structure may show the parent alone. Read-outs that look alike come from different tables or passages of the source.

Legend:
[1] = tested on: PC12 cells, or rat sympathetic neurons; details: cited from earlier work; for concentration giving maximal protection from death: camptothecin-treated, minimum concentrations that fully inhibit DNA synthesis by proliferating PC12 cells; for cell death: day 6, in the presence or absence of camptothecin
cortical neurons = details: cited from earlier work; for IC50: Park et al. 1997, read-out: IC50, protection against camptothecin-induced cortical neuronal death
HT-29 = assay: In vitro tumor cell proliferation, HT-29; format: cell-based, human; details: many values given with an undefined *, read-out: In vitro Tumor Cell Proliferation (IC50, μM) Colon HT-29
In short: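 HT-29 cells seeded overnight at 37° C, then exposed to drug for 3 days, refed with fresh drug-containing medium for 4 more days. Proliferation read by sulforhodamine B staining after TCA fixation; alternatively by CyQUANT after freezing plates at −80° C following 3 days' drug exposure.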

cdk4/cyclin D1 = molecular target: T1, cdk4/cyclin D1 (Homo sapiens, UniProt P11802); assay: Cyclin-dependent Kinase 4 Assay (cdk4/cyclin D1, GST-Rb substrate); format: biochemical; details: cdk4/cyclin D1 insect cell lysate, 10 μM ATP, 30 min at 37° C., several values = separate determinations, read-out: CDK4 Inhibition IC50
T1 construct: made in house; host or cells: Sf9 insect cells (Bac-to-Bac baculovirus, pFastBac)
In short: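 Insect-cell lysate of coexpressed cdk4/cyclin D1 (0.1 μg) acts on GST-Rb (0.5 μg) bound to glutathione-Sepharose, in 50 mM HEPES pH 7.5, 10 mM MgCl2, 1 mM EGTA. Reaction runs 30 min at 37 °C, then is stopped by filtration and TNEN washes. Rb phosphorylation read by scintillation counting; IC50 derived.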

A549 = assay: In vitro tumor cell proliferation, A549; format: cell-based, human; details: many values given with an undefined *, read-out: In vitro Tumor Cell Proliferation (IC50, μM) Lung A549
In short: (§1)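 SRB read-out: cells seeded overnight, 37° C; drug 3 d, medium plus fresh drug replaced, +4 d; TCA fix 60 min 4° C, 0.4% SRB stain 30 min. Alt. CyQUANT: drug 3 d, plates frozen −80° C before read.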

cdk2/cyclin E = molecular target: T2, cdk2/cyclin E (Homo sapiens, UniProt P24941); assay: Cyclin-Dependent Kinase 2 Assay (cdk2/cyclin E, GST-Rb substrate); format: biochemical; details: recombinant cdk2/cyclin E, 10 μM ATP, 30 min at 30° C., several values in a cell = separate determinations, read-out: CDK-2 Inhibition IC50
T2 construct: made in house; host or cells: insect cells (baculovirus co-infection)
Description: Substrate: GST-Rb as described above for cdk4/cyclin D1
Assay conditions for cdk2/cyclin E were identical to those for cdk4/cyclin D1 including the substrate. The concentration of recombinant cdk2/cyclin E in the assay was 0.1 μg per 100 μl assay. Incubation was for 30 min at 30° C.

MDA-MB-231 = assay: In vitro tumor cell proliferation, MDA-MB-231; format: cell-based, human; details: sulforhodamine B or CyQUANT assay, many values given with an undefined *, read-out: In vitro Tumor Cell Proliferation (IC50, μM) Breast MDA-MB-231
In short: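 Cells plated overnight at 37 °C, then exposed to drug for 3 days, refed with fresh drug and incubated 4 more days. Read-out by sulforhodamine B staining after TCA fixation; alternatively, CyQUANT after 3-day drug exposure and freezing at −80 °C.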

MCF-7 = assay: In vitro tumor cell proliferation, MCF-7; format: cell-based, human; details: sulforhodamine B or CyQUANT assay, read-out: In vitro Tumor Cell Proliferation (IC50, μM) Breast MCF-7
Description: (§2) The proliferation of tumor cells was measured using a sulforhodamine B assay as described in Skehan, P., et al., J. Natl. Cancer Inst. […] Tumor cells were harvested with trypsin-EDTA, cells that excluded trypan blue were counted, added to 96-well plates and incubated overnight at 37° C. Drug was added to the wells following dilution in culture medium. Three days later, the medium was removed and replenished with medium containing fresh drug and incubated an additional 4 days. The cells were then fixed with 0.1 ml 10% trichloroacetic acid for 60 min at 4° C. The plates were rinsed five times with tap water, air-dried and stained for 30 min with 0.4% sulforhodamine B in 1% acetic acid and air-dried.
(§3) Alternatively, the CyQUANT cell proliferation assay was used to quantitate cell proliferation.
(§4) Alternatively, the CyQUANT cell proliferation assay was used to quantify tumor cell proliferation. Tumor cells were harvested with trypsin-EDTA, cells that excluded trypan blue were counted, added to 96-well plates and incubated overnight at 37° C. Drug was added to the wells following dilution in culture medium. Three days later the medium was removed and the plates frozen at −80° C. for at least 30 minutes.
MCF7 is a human breast adenocarcinoma, hormone-dependent (HTB 22);

PC-3 = assay: In vitro tumor cell proliferation, PC-3; format: cell-based, human; details: many values given with an undefined *, read-out: In vitro Tumor Cell Proliferation (IC50, μM) Prostate PC-3
In short: as §1

DU145 = assay: In vitro tumor cell proliferation, DU145; format: cell-based, human; details: many values given with an undefined *, read-out: In vitro Tumor Cell Proliferation (IC50, μM) Prostate DU145
In short: as §1

DMS-114 = assay: In vitro tumor cell proliferation, DMS-114; format: cell-based, human; details: many values given with an undefined *, read-out: In vitro Tumor Cell Proliferation (IC50, μM) Lung DMS-114
In short: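 Human small cell lung carcinoma DMS-114 cells plated overnight, then drug-treated for 3 days, medium and drug renewed, and incubated 4 more days. Growth read by sulforhodamine B staining after TCA fixation; alternatively by CyQUANT after 3 days' drug exposure and freezing at −80 °C.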

HCT-15 = assay: In vitro tumor cell proliferation, HCT-15; format: cell-based, human; details: read-out: In vitro Tumor Cell Proliferation (IC50, μM) Colon HCT-15
Description: as §2, §3, §4

[2] = tested on: cAMP- and cGMP-dependent kinases, and protein kinase C; details: cited from earlier work
[3] = tested on: neuronal PC12 cells and sympathetic neurons; details: two model systems of neuronal survival; Park et al. 1996; cited from earlier work
[4] = tested on: CDK-cyclin protein kinases; details: Vesely et al. 1994; cited from earlier work
[5] = Homo sapiens, MDA-MB-231, MDA-MB-231

T1 sequence (P11802 whole entry): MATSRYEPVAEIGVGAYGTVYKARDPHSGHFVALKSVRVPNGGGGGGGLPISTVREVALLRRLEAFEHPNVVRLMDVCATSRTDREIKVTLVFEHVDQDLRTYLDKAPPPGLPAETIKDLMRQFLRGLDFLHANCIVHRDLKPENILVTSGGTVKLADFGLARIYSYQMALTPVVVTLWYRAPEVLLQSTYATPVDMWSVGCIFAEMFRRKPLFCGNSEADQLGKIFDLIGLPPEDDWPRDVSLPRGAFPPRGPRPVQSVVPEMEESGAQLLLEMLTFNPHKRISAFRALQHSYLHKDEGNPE
T1 sequence (P24385 whole entry partner): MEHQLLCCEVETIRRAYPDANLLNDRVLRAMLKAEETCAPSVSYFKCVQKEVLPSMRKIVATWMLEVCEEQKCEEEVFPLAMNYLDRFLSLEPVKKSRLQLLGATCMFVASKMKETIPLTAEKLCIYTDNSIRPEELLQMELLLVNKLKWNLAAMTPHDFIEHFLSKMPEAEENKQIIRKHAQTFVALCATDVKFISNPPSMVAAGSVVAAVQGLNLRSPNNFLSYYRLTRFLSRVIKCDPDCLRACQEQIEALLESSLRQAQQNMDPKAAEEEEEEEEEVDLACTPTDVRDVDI

Compound | IC50 (HT-29; HT-29, dihydrochloride) [µM] | IC50 (HT-29; Homo sapiens, HT-29, HT-29) [µM] | IC50 (cdk4/cyclin D1) | IC50 (A549; Homo sapiens, A549, A549) [µM] | IC50 (cdk2/cyclin E) | IC50 (MDA-MB-231; [5]) [µM] | IC50 (MDA-MB-231; MDA-MB-231, dihydrochloride) [µM] | IC50 (MCF-7; Homo sapiens, MCF7, MCF-7) [µM] | IC50 (PC-3; Homo sapiens, PC-3, PC-3) [µM] | IC50 (PC-3; PC-3, dihydrochloride) [µM] | IC50 (DU145; DU145, dihydrochloride) [µM] | IC50 (DU145; Homo sapiens, DU-145, DU145) [µM] | IC50 (DMS-114; DMS-114, dihydrochloride) [µM] | IC50 (DMS-114; Homo sapiens, DMS-114, DMS-114) [µM] | IC50 (MCF-7; MCF-7, dihydrochloride) [µM] | IC50 (HCT-15; Homo sapiens, HCT-15, HCT-15) [µM] | also measured
Cn1cnc2nc(NCCO)nc(NCc3ccccc3)c21 [iso-olomoucine] | – | – | – | – | – | – | – | – | – | – | – | – | – | – | – | – | prevention of cell death of camptothecin-treated neuronal cells ([1]; PC12 cells / sympathetic neurons): failed to prevent the cell death; prevention of cell death of camptothecin-treated neuronal cells (cortical neurons; cortical neurons): failed to prevent the cell death
COc1cccc(CNc2nc(N[C@H]3CC[C@H](N)CC3)nc3c2ncn3C2CCCC2)c1OC [Example 13, 2-[Trans-(4-aminocyclohexyl)amino]-6-[(2,3-dimethoxybenzyl)amino]-9-cyclopentylpurine dihydrochloride] | 3.4 | 3.1 | 2900 nM | 1.7 | 50 nM | 2.2 | 2.6 | 2 | 1.9 | 1.3 | 1.7 | 0.99 | 1.4 | 1 | – | – | –
Cn1cnc2c(NCc3ccccc3)nc(NCCO)nc21 [Olomoucine, 6-(benzylamino)-2-[(2-hydroxyethyl)amino]-9-methylpurine, reference compound] | – | 53 | – | – | – | – | – | 35 | – | – | – | > 100 | – | 50 | – | 62 | concentration giving maximal protection from death [1]: 200 µM; cell death [1]: approximately 30%; IC50 (HT-29; HT-29): 58 µM; IC50 (A549; Homo sapiens, A549): 69 µM; IC50 (cortical neurons): 100000 nM; effect on other major protein kinases [2]: no effect; effect on death of neuronal PC12 cells and sympathetic neurons [3]: suppress the death; IC50 (PC-3; Homo sapiens, PC-3): 55 µM; IC50 (DMS-114; DMS-114): 76 µM; IC50 [4]: ~7000 nM; IC50 (HCT-15; HCT-15): 63 µM
CN1CC[C@H](c2c(O)cc(O)c3c(=O)cc(-c4ccccc4Cl)oc23)[C@H](O)C1 [Flavopiridol] | – | – | – | – | – | – | – | – | – | – | – | – | – | – | – | – | concentration giving maximal protection from death [1]: 1 µM; cell death [1]: approximately 30%; IC50 (cortical neurons): 100 nM; effect on death of neuronal PC12 cells and sympathetic neurons [3]: suppress the death
N[C@H]1CC[C@H](Nc2nc(NCc3ccc(C(F)(F)F)cc3)c3ncn(C4CCCC4)c3n2)CC1 [Example 1, 2-[Trans-(4-aminocyclohexyl)amino]-6-[(4-trifluorobenzyl)amino]-9-cyclopentylpurine dihydrochloride] | 1.6 | 1.5 | 2000 nM and 2700 nM and 1700 nM | 0.97 | 120 nM and 81 nM | 1.4 | 1.5 | 1.2 | 0.96 | 1 | 1.5 | 1.4 | 0.86 | 1.1 | 1.6 | 2.4 | IC50 (A549; A549, dihydrochloride): 0.9 µM; IC50 (HCT-15; HCT-15, dihydrochloride): 2.5 µM

Further lines, with some results ahead:

IC50 (HT-29; HT-29, dihydrochloride) [µM] | IC50 (HT-29; Homo sapiens, HT-29, HT-29) [µM] | IC50 (cdk4/cyclin D1) | IC50 (A549; Homo sapiens, A549, A549) [µM] | IC50 (cdk2/cyclin E) | IC50 (MDA-MB-231; [5]) [µM] | IC50 (MDA-MB-231; MDA-MB-231, dihydrochloride) [µM] | IC50 (MCF-7; Homo sapiens, MCF7, MCF-7) [µM] | IC50 (PC-3; Homo sapiens, PC-3, PC-3) [µM] | IC50 (PC-3; PC-3, dihydrochloride) [µM] | IC50 (DU145; DU145, dihydrochloride) [µM] | IC50 (DU145; Homo sapiens, DU-145, DU145) [µM] | IC50 (DMS-114; DMS-114, dihydrochloride) [µM] | IC50 (DMS-114; Homo sapiens, DMS-114, DMS-114) [µM] | IC50 (MCF-7; MCF-7, dihydrochloride) [µM] | IC50 (HCT-15; Homo sapiens, HCT-15, HCT-15) [µM] | Compound | also measured
– | 12 | 2200 nM and 2600 nM | 1.9 | 480 nM | 12 | – | 5.6 | 4.8 | 6.4 | 9.1 | 6.4 | 7.7 | 6.1 | 11 | > 20 | COc1cc(CNc2nc(N[C@H]3CC[C@H](N)CC3)nc3c2ncn3C2CCCC2)cc(OC)c1 [Example 28, 2-[Trans-(4-aminocyclohexyl)amino]-6-[(3 5-dimethoxybenzyl)amino]-9-cyclopentylpurine dihydrochloride] | –
6 | 3.4 | 1200 nM and 800 nM | 3.4 | 80 nM | 3.4 | 5.8 | 2.3 | 1 | 2 | 4.3 | 2.7 | 4.5 | 4.2 | 3.5 | 7.7 | COc1ccc(CNc2nc(N[C@H]3CC[C@H](N)CC3)nc3c2ncn3C2CCCC2)cc1OC [Example 34, 2-[Trans-(4-aminocyclohexyl)amino]-6-[3,4-dimethoxybenzyl)amino]-9-cyclopentylpurine dihydrochloride] | IC50 (A549; A549, dihydrochloride): 4.8 µM
– | 2.1 | 9400 nM and 7700 nM | – | 490 nM and 140 nM | – | – | 2.9 | – | – | – | – | – | – | – | 5.7 | N[C@H]1CC[C@H](Nc2nc(NCc3cccc(I)c3)c3ncn(C4C=CCC4)c3n2)CC1 (relative stereo) [Example 35, 2-[Trans-(4-aminocyclohexyl)amino]-6-[(3-iodobenzyl)amino]-9-(2-cyclopentenyl)purine hydrochloride] | IC50 (HT-29; HT-29, hydrochloride): 1.9 µM; IC50 (MCF-7; MCF-7, hydrochloride): 1.9 µM; IC50 (HCT-15; HCT-15, hydrochloride): 4 µM
